From US20250019387A1 (Frontier Medicines Corporation, priority 0001, published 2025) come the findings set out here.

Each structure is given as a SMILES string.

The term IC50 denotes the concentration that inhibits the measured activity by half.

KRAS G12C and cRAF (Ras-binding domain) interaction, sequence (P01116 other isoform, or with tags, fused parts or gaps G12C/C51S/C80L/C118S): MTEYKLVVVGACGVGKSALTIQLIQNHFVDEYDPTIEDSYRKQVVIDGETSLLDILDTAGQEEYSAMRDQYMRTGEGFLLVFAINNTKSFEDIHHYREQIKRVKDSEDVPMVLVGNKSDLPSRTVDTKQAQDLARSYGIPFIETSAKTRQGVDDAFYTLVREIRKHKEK

In the experiment the target is KRAS G12C and cRAF (Ras-binding domain) interaction (Homo sapiens (Human), UniProt P01116, C118S/C51S/C80L/G12C). The experiment is described as follows: Inhibition of KRAS G12C and cRAF binding (AlphaScreen). The following applies: additional exemplary compounds; KRAS G12C and cRAF binding; read-out: RAF1 RBD IC50. The procedure:
Compounds were diluted in 100% DMSO and each compound concentration was spotted at 200 nl/well onto low volume, white 384 well plates. […] Plates were incubated for 19-20 hours. A mixture of RBD and the AlphaScreen streptavidin donor and glutathione acceptor beads diluted in 25 mM Hepes, pH 7.4, 150 mM NaCl, 5 mM MgCl2, 0.01% TritonX-100 and 2% DMSO was then added at 10 ul/well and incubated for 60-90 minutes before the samples were read for emission at 570 nm after excitation of the donor beads at 680 nm. All incubations were performed at room temperature. […] IC50s were determined using nonlinear regression fit of [inhibitor]vs. response (4 parameters). […]
With `C=CC(=O)N1CC(N(C)c2nc(OCC34CCCN3CCC4)nc3c(F)c(-c4cccc5cccc(Cl)c45)ncc23)C1`, the half-maximal inhibitory concentration (IC50) is more than 0.5 µM.

With `COC/C=C/S(=O)(=O)CCN(C)c1nc(OCC23CCCN2CCC3)nc2c1CCN(c1cccc3cccc(Cl)c13)C2`, the concentration for half-maximal inhibition (IC50) was 0.1 to 0.5 µM.

As to `CN(C)C/C=C/S(=O)(=O)CCN(C)c1nc(OC[C@@H]2CCCN2C)nc2c(F)c(-c3cccc4cccc(Cl)c34)ncc12`, the 50% inhibitory concentration (IC50) was in the range of 0.01 to 0.1 µM.

In the case of `CN(CCS(=O)(=O)/C=C/CN1CCC(F)(F)C1)c1nc(OC[C@@H]2CCCN2C)nc2c(F)c(-c3cccc4cccc(Cl)c34)ncc12`, the IC50 is more than 0.5 µM.

With `CN1CCC[C@H]1COc1nc(N(C)[C@@H]2CCN(C(=O)/C=C/CN3CC(F)C3)C2)c2cnc(-c3cccc4cccc(Cl)c34)c(F)c2n1`, the IC50 was more than 0.5 µM.

As to `C=CC(=O)N1CC[C@@H](N(C)c2nc(OC[C@@]34CCCN3C[C@H](F)C4)nc3c2CCN(c2cc(O)cc4ccccc24)C3)C1`, the IC50 fell in the range of 0.1 to 0.5 µM.

Consider `C=CC(=O)N1CCC(N(c2nc(OCC34CCCN3CCC4)nc3c(F)c(-c4cccc5cccc(Cl)c45)ncc23)C2CC2)C1` (stereo not drawn), for which the IC50 was more than 0.5 µM.

As to `C=CC(=O)N1CC(CN(C)c2nc(OC[C@]34CCCN3C[C@@H](F)C4)nc3c2CCN(c2cccc4cccc(Cl)c24)C3)C1`, the IC50 was in the range of 0.1 to 0.5 µM.

As to `C=CC(=O)N1CC(CN(C)c2nc(OC[C@]34CCCN3C[C@@H](F)C4)nc3c(F)c(-c4cccc5cccc(Cl)c45)ncc23)C1`, the IC50 lay within 0.1 to 0.5 µM.

As for `C=CC(=O)N1CC[C@@H](N(C)c2nc(OC[C@]34CCCN3C[C@@H](F)C4)nc3c(F)c(-c4cccc5cccc(Cl)c45)ncc23)C1`, the 50% inhibitory concentration (IC50) was 0.1 to 0.5 µM.

On to `C=CC(=O)N1CC[C@@H](N(C)c2nc(OC[C@]34CCCN3C[C@@H](F)C4)nc3c2CCN(c2cccc4cccc(Cl)c24)C3)C1`, for which the half-inhibitory concentration (IC50) was more than 0.5 µM.

For the compound `Cc1noc(/C=C/C(=O)N2CCN(c3nc(OC[C@@]45CCCN4C[C@H](F)C5)nc4c3CCN(c3cccc5cccc(Cl)c35)C4)CC2)n1`, the concentration for half-maximal inhibition (IC50) is more than 0.5 µM.

Turning to `CC(C)c1noc(/C=C/C(=O)N2CCN(c3nc(OCC45CCCN4CCC5)nc4c3CCN(c3cccc5cccc(Cl)c35)C4)CC2)n1`, the IC50 is more than 0.5 µM.

In the case of `CC(C)c1noc(/C=C/C(=O)N2CCN(c3nc(OC[C@@]45CCCN4C[C@H](F)C5)nc4c3CCN(c3cccc5cccc(Cl)c35)C4)CC2)n1`, the IC50 is more than 0.5 µM.

For the compound `C=CC(=O)N1CC[C@@H](N(CC)c2nc(OC[C@@]34CCCN3C[C@H](F)C4)nc3c(F)c(-c4cccc5cccc(Cl)c45)ncc23)C1`, the IC50 is more than 0.5 µM.

Consider `C=CC(=O)N1CCC(N(c2nc(OCC34CCCN3CCC4)nc3c2CCN(c2cccc4cccc(Cl)c24)C3)C2CC2)C1` (stereo not drawn), for which the 50% inhibitory concentration (IC50) is more than 0.5 µM.

On to `C=CC(=O)N1CCC(N(c2nc(OC[C@@]34CCCN3C[C@H](F)C4)nc3c2CCN(c2cccc4cccc(Cl)c24)C3)C2CC2)C1` (stereo partly drawn), for which the IC50 is more than 0.5 µM.

Turning to `C=CC(=O)N1CCC1CN(C)c1nc(OC[C@@]23CCCN2C[C@H](F)C3)nc2c(F)c(-c3cccc4cccc(Cl)c34)ncc12` (stereo partly drawn), the IC50 was more than 0.5 µM.

Take `C=CC(=O)N1CC(CN(C)c2nc(OC[C@]34CCCN3C[C@H](F)C4)nc3c(F)c(-c4cccc5cccc(Cl)c45)ncc23)C1`: the concentration for half-maximal inhibition (IC50) was more than 0.5 µM.

For `C=CC(=O)N1CC[C@@H](N(C)c2nc(OC[C@]34CCCN3C[C@H](F)C4)nc3c(F)c(-c4cccc5cccc(Cl)c45)ncc23)C1`, the half-inhibitory concentration (IC50) is 0.1 to 0.5 µM.

Regarding `CN(C)C/C=C/S(=O)(=O)C1CCCN(c2nc(OCC34CCCN3CCC4)nc3c(F)c(-c4cccc5cccc(Cl)c45)ncc23)C1` (stereo not drawn), the half-maximal inhibitory concentration (IC50) was in the range of 0.01 to 0.1 µM.

As for `C=CC(=O)N1C[C@@H](N(C)c2nc(OCC34CCCN3CCC4)nc3c2CCN(c2cccc4cccc(Cl)c24)C3)C[C@@H]1CC#N`, the half-maximal inhibitory concentration (IC50) was more than 0.5 µM.

With `C=CC(=O)N1C[C@@H](N(C)c2nc(OC[C@@]34CCCN3C[C@H](F)C4)nc3c2CCN(c2cccc4cccc(Cl)c24)C3)C[C@@H]1CC#N`, the IC50 was more than 0.5 µM.

Regarding `C=CC(=O)N1CCC(N(c2nc(OC[C@@]34CCCN3C[C@H](F)C4)nc3c(F)c(-c4cccc5cccc(Cl)c45)ncc23)C2CC2)C1` (stereo partly drawn), the IC50 was more than 0.5 µM.

As to `C=CC(=O)N1CCC1CN(C)c1nc(OC[C@@]23CCCN2C[C@H](F)C3)nc2c1CCN(c1cccc3cccc(Cl)c13)C2` (stereo partly drawn), the IC50 was more than 0.5 µM.

For the compound `C=CC(=O)N1CC[C@@H]1CN(C)c1nc(OC[C@@]23CCCN2C[C@H](F)C3)nc2c(F)c(-c3cccc4cccc(Cl)c34)ncc12`, the IC50 is more than 0.5 µM.

`C=CC(=O)N1CC[C@H]1CN(C)c1nc(OC[C@@]23CCCN2C[C@H](F)C3)nc2c(F)c(-c3cccc4cccc(Cl)c34)ncc12`: the IC50 is more than 0.5 µM.

In the case of `C=CC(=O)N(C)C[C@H]1CCN1c1nc(OC[C@@]23CCCN2C[C@H](F)C3)nc2c(F)c(-c3cccc4cccc(Cl)c34)ncc12`, the IC50 was more than 0.5 µM.

Turning to `C=CC(=O)N(C)C[C@@H]1CCN1c1nc(OC[C@@]23CCCN2C[C@H](F)C3)nc2c(F)c(-c3cccc4cccc(Cl)c34)ncc12`, the IC50 is more than 0.5 µM.

In the case of `C=CC(=O)N1CC(CN(C)c2nc(OC[C@]34CCCN3C[C@H](F)C4)nc3c2CCN(c2cccc4cccc(Cl)c24)C3)C1`, the IC50 is 0.1 to 0.5 µM.

With `CN(C)C/C=C/S(=O)(=O)CCN(C)c1nc(OC[C@@H]2CCCN2C)nc2c(F)c(-c3cccc4ccc(F)c(Cl)c34)ncc12`, the IC50 was in the range of 0.01 to 0.1 µM.

Consider `C=CC(=O)N1C[C@H](N(C)c2nc(OC[C@@]34CCCN3C[C@H](F)C4)nc3c(F)c(-c4cccc5cccc(Cl)c45)ncc23)C[C@H]1CC#N`, for which the IC50 is 0.01 to 0.1 µM.

For the compound `Cc1cc(/C=C/C(=O)N2CC[C@@H](N(C)c3nc(OCC45CCCN4CCC5)nc4c(F)c(-c5cccc6cccc(Cl)c56)ncc34)C2)on1`, the IC50 is more than 0.5 µM.

Turning to `CN(c1nc(OCC23CCCN2CCC3)nc2c(F)c(-c3cccc4cccc(Cl)c34)ncc12)[C@@H]1CCN(C(=O)/C=C/c2ncn(C)n2)C1`, the half-inhibitory concentration (IC50) was more than 0.5 µM.

For the compound `CN(c1nc(OCC23CCCN2CCC3)nc2c(F)c(-c3cccc4cccc(Cl)c34)ncc12)[C@@H]1CCN(C(=O)/C=C/c2cn(C)nn2)C1`, the IC50 is more than 0.5 µM.

As to `C=CC(=O)N1CC(CN(C)c2nc(OC[C@@]34CCCN3C[C@@H](F)C4)nc3c(F)c(-c4cccc5cccc(Cl)c45)ncc23)C1`, the IC50 is more than 0.5 µM.

On to `C=CC(=O)N1CC[C@@H](N(C)c2nc(OC[C@@]34CCCN3C[C@@H](F)C4)nc3c(F)c(-c4cccc5cccc(Cl)c45)ncc23)C1`, for which the IC50 is more than 0.5 µM.

`C=CC(=O)N1CC[C@@H](N(C)c2nc(OC[C@@]34CCCN3C[C@@H](F)C4)nc3c2CCN(c2cccc4cccc(Cl)c24)C3)C1`: the 50% inhibitory concentration (IC50) is more than 0.5 µM.

`N#CN1C2CCC1CN(c1nc(OC[C@@]34CCCN3C[C@H](F)C4)nc3c1CCN(c1cccc4cccc(Cl)c14)C3)C2`: the IC50 is more than 0.5 µM.

Take `N#CN1C2CCC1CN(c1nc(OC[C@@]34CCCN3C[C@H](F)C4)nc3c1CCN(c1cccc4ccc(F)c(Cl)c14)C3)C2`: the IC50 was more than 0.5 µM.

For `C=CC(=O)N(C)CC1CCN1c1nc(OC[C@@]23CCCN2C[C@H](F)C3)nc2c(F)c(-c3cccc4cccc(Cl)c34)ncc12` (stereo partly drawn), the 50% inhibitory concentration (IC50) is more than 0.5 µM.

Regarding `N#CN1CCC(N(c2nc(OC[C@@]34CCCN3C[C@H](F)C4)nc3c(F)c(-c4cccc5cccc(Cl)c45)ncc23)C2CC2)C1` (stereo partly drawn), the IC50 fell in the range of 0.01 to 0.1 µM.

For `C=CC(=O)N1CC[C@@H](N(C)c2nc(OC[C@]34CCCN3C[C@H](F)C4)nc3c2CCN(c2cccc4cccc(Cl)c24)C3)C1`, the IC50 was more than 0.5 µM.

As for `C=CC(=O)N1C[C@H](N(C)c2nc(OC[C@@]34CCCN3C[C@H](F)C4)nc3c(F)c(-c4cccc5cccc(Cl)c45)ncc23)CC1C#N` (stereo partly drawn), the IC50 is 0.01 to 0.1 µM.

In the case of `C=CC(=O)N1CC(CN(C)c2nc(OC[C@@]34CCCN3C[C@@H](F)C4)nc3c2CCN(c2cccc4cccc(Cl)c24)C3)C1`, the concentration for half-maximal inhibition (IC50) was more than 0.5 µM.

As for `C=CC(=O)N1C2CCC1CN(c1nc(OCC34CCCN3CCC4)nc3c1CCN(c1cccc4cccc(Cl)c14)C3)C2`, the IC50 was more than 0.5 µM.

As for `C=CC(=O)N1C[C@H]2C[C@@H]1CN2c1nc(OCC23CCCN2CCC3)nc2c1CCN(c1cccc3cccc(Cl)c13)C2`, the concentration for half-maximal inhibition (IC50) was more than 0.5 µM.

On to `C=CC(=O)N1C[C@@H]2C[C@H]1CN2c1nc(OCC23CCCN2CCC3)nc2c1CCN(c1cccc3cccc(Cl)c13)C2`, for which the IC50 was more than 0.5 µM.

On to `C=CC(=O)N1C[C@H](N(C)c2nc(OCC34CCCN3CCC4)nc3c2CCN(c2cccc4cccc(Cl)c24)C3)C[C@H]1CC#N`, for which the IC50 was more than 0.5 µM.

`C=CC(=O)N1CC[C@@H]1CN(C)c1nc(OC[C@@]23CCCN2C[C@H](F)C3)nc2c1CCN(c1cccc3cccc(Cl)c13)C2`: the half-maximal inhibitory concentration (IC50) was more than 0.5 µM.

Regarding `CN(c1nc(OCC23CCCN2CCC3)nc2c(F)c(-c3cccc4cccc(Cl)c34)ncc12)[C@@H]1CCN(C(=O)/C=C/c2ncccn2)C1`, the IC50 was more than 0.5 µM.

As for `C=CC(=O)N1CC[C@@H](Nc2nc(OC[C@@]34CCCN3C[C@H](F)C4)nc3c(F)c(-c4cccc5cccc(Cl)c45)ncc23)C1`, the half-maximal inhibitory concentration (IC50) is more than 0.5 µM.

As for `C=CC(=O)N1CC[C@H](Nc2nc(OC[C@@]34CCCN3C[C@H](F)C4)nc3c(F)c(-c4cccc5cccc(Cl)c45)ncc23)C1`, the half-inhibitory concentration (IC50) is more than 0.5 µM.

In the case of `C=CC(=O)N1CC(CNc2nc(OC[C@@]34CCCN3C[C@H](F)C4)nc3c(F)c(-c4cccc5cccc(Cl)c45)ncc23)C1`, the IC50 was in the range of 0.1 to 0.5 µM.

For the compound `C=CC(=O)N1CC[C@H](Nc2nc(OC[C@@]34CCCN3C[C@H](F)C4)nc3c2CCN(c2cccc4cccc(Cl)c24)C3)C1`, the IC50 is more than 0.5 µM.

As for `CN(c1nc(OC[C@@]23CCCN2C[C@H](F)C3)nc2c(F)c(-c3cccc4cccc(Cl)c34)ncc12)[C@@H]1CCN(C(=O)/C=C/c2ncn(C)n2)C1`, the IC50 is more than 0.5 µM.

For `CN(c1nc(OCC23CCCN2CCC3)nc2c(F)c(-c3cccc4cccc(Cl)c34)ncc12)[C@@H]1CCN(C(=O)/C=C/c2ccncn2)C1`, the 50% inhibitory concentration (IC50) was more than 0.5 µM.
